In article PMC8657855 (International Journal of Molecular Sciences, 2021):
≈ marks a conversion by molar mass, not a printed value.

What was measured:
Assay in all cases: microbe, parasite or virus in culture
[1] = test system: Xanthomonas oryzae pv. oryzae Xoo; details: read-out: EC50 (mg/L) Xoo
[2] = test system: Xanthomonas oryzae pv. oryzae Xoo; details: for inhibition at 10 µg/mL: read-out: Inhibition (%) 10 (mg/L); for inhibition at 50 µg/mL: read-out: Inhibition (%) 50 (mg/L)
[3] = test system: Xanthomonas oryzae pv. oryzicola Xoc; details: for inhibition at 10 µg/mL: read-out: Inhibition (%) 10 (mg/L); for inhibition at 50 µg/mL: read-out: Inhibition (%) 50 (mg/L)
[4] = test system: Xanthomonas oryzae pv. oryzicola Xoc; details: read-out: EC50 (mg/L) Xoc

Structure (SMILES)	EC50 [1]	inhibition at 10 µg/mL [2]	inhibition at 50 µg/mL [2]	inhibition at 10 µg/mL [3]	inhibition at 50 µg/mL [3]	EC50 [4]
S=c1[nH]nc(NCNc2n[nH]c(=S)s2)s1 [BT, Bismerthiazol]	83.1 ± 8.07 mg/L (≈ 298 µM)	2.5 ± 1.6%	27.4 ± 5%	7 ± 1.7%	27 ± 1.7%	105.9 ± 0.56 mg/L (≈ 380 µM)
CS(=O)(=O)c1nnc(CNC(=O)C=Cc2cccs2)o1 [compound 1, N-((5-(methylsulfonyl)-1,3,4-oxadiazol-2-yl)methyl)-3-(thiophen-2-yl)acrylamide]	0.68 ± 0.07 mg/L (≈ 2.17 µM)	96.2 ± 1.5%	97.6 ± 1.2%	97.3 ± 1.8%	98.3 ± 0.9%	0.86 ± 0.08 mg/L (≈ 2.74 µM)
CCS(=O)(=O)c1nnc(CNC(=O)C=Cc2cccs2)o1 [compound 2, N-((5-(ethylsulfonyl)-1,3,4-oxadiazol-2-yl)methyl)-3-(thiophen-2-yl)acrylamide]	0.72 ± 0.07 mg/L (≈ 2.2 µM)	85 ± 4.1%	90.6 ± 8.6%	96.9 ± 0.3%	97.5 ± 0.8%	3.41 ± 0.05 mg/L (≈ 10.4 µM)
CS(=O)(=O)c1nnc(CNC(=O)c2ccc(Cl)s2)o1 [compound 3, 5-chloro-N-((5-(methylsulfonyl)-1,3,4-oxadiazol-2-yl)methyl)thiophene-2-car boxamide]	0.53 ± 0.07 mg/L (≈ 1.65 µM)	98.6 ± 0.8%	95.8 ± 2.6%	98 ± 0.2%	98.3 ± 1.3%	1.06 ± 0.04 mg/L (≈ 3.29 µM)
CCS(=O)(=O)c1nnc(CNC(=O)c2ccc(Cl)s2)o1 [compound 4, 5-chloro-N-((5-(ethylsulfonyl)-1,3,4-oxadiazol-2-yl)methyl)thiophene-2-carb oxamide]	0.45 ± 0.04 mg/L (≈ 1.34 µM)	98.3 ± 1%	97.9 ± 1.5%	96.9 ± 1.1%	99 ± 0.2%	0.83 ± 0.01 mg/L (≈ 2.47 µM)
CS(=O)(=O)c1nnc(CNC(=O)c2ccc(Br)o2)o1 [compound 5, 5-bromo-N-((5-(methylsulfonyl)-1,3,4-oxadiazol-2-yl)methyl)furan-2-carbox amide]	0.48 ± 0.01 mg/L (≈ 1.37 µM)	96.3 ± 2.5%	96.6 ± 0.4%	99.3 ± 0.1%	97.8 ± 2%	2.59 ± 0.05 mg/L (≈ 7.4 µM)
CS(=O)(=O)c1nnc(CNC(=O)c2ncc(C(F)(F)F)cc2Cl)o1 [compound 6, 3-chloro-N-((5-(methylsulfonyl)-1,3,4-oxadiazol-2-yl)methyl)-5-(trifluoromethyl)picolinamide]	3.49 ± 0.07 mg/L (≈ 9.07 µM)	94.8 ± 1.8%	99.7 ± 0.2%	95.5 ± 0.8%	99.3 ± 0.2%	3.31 ± 0.09 mg/L (≈ 8.6 µM)
CCS(=O)(=O)c1nnc(CNC(=O)c2ncc(C(F)(F)F)cc2Cl)o1 [compound 7, 3-chloro-N-((5-(ethylsulfonyl)-1,3,4-oxadiazol-2-yl)methyl)-5-(trifluoromethyl)picolinamide]	7.45 ± 0.16 mg/L (≈ 18.7 µM)	48.1 ± 0.8%	99.8 ± 0.1%	40.1 ± 1.3%	99.6 ± 0.2%	7.58 ± 0.27 mg/L (≈ 19 µM)
CS(=O)(=O)c1nnc(CNC(=O)C=Cc2ccccc2)o1 [compound 8, N-((5-(methylsulfonyl)-1,3,4-oxadiazol-2-yl)methyl)cinnamamide]	0.73 ± 0.08 mg/L (≈ 2.38 µM)	99.7 ± 0.3%	98.9 ± 0.5%	98.8 ± 0.7%	92.3 ± 7.3%	0.7 ± 0.01 mg/L (≈ 2.28 µM)
CCS(=O)(=O)c1nnc(CNC(=O)C=Cc2ccccc2)o1 [compound 9, N-((5-(ethylsulfonyl)-1,3,4-oxadiazol-2-yl)methyl)cinnamamide]	0.89 ± 0.12 mg/L (≈ 2.77 µM)	100%	97.6 ± 1.4%	97.1 ± 1.6%	98 ± 1.7%	0.78 ± 0.01 mg/L (≈ 2.43 µM)
CS(=O)(=O)c1nnc(CNC(=O)C=Cc2ccc(F)cc2)o1 [compound 10, 3-(4-fluorophenyl)-N-((5-(methylsulfonyl)-1,3,4-oxadiazol-2-yl)methyl)acrylamide]	0.36 ± 0.03 mg/L (≈ 1.11 µM)	99 ± 0.3%	99.5 ± 0.1%	99 ± 0.8%	95.6 ± 1%	0.53 ± 0.01 mg/L (≈ 1.63 µM)
CCS(=O)(=O)c1nnc(CNC(=O)C=Cc2ccc(F)cc2)o1 [compound 11, N-((5-(ethylsulfonyl)-1,3,4-oxadiazol-2-yl)methyl)-3-(4-fluorophenyl)acrylamide]	0.72 ± 0.05 mg/L (≈ 2.12 µM)	98.8 ± 0.1%	99.2 ± 0.4%	50.6 ± 2.1%	99 ± 1.3%	10.8 ± 2.91 mg/L (≈ 31.7 µM)
Cc1ccc(C=CC(=O)NCc2nnc(S(C)(=O)=O)o2)cc1 [compound 12, N-((5-(methylsulfonyl)-1,3,4-oxadiazol-2-yl)methyl)-3-(p-tolyl)acrylamide]	0.52 ± 0.04 mg/L (≈ 1.62 µM)	99.5 ± 0.1%	99.8 ± 0.2%	96.9 ± 2.3%	95.6 ± 2.1%	0.64 ± 0.05 mg/L (≈ 1.99 µM)
CCS(=O)(=O)c1nnc(CNC(=O)C=Cc2ccc(C)cc2)o1 [compound 13, N-((5-(ethylsulfonyl)-1,3,4-oxadiazol-2-yl)methyl)-3-(p-tolyl)acrylamide]	0.72 ± 0.07 mg/L (≈ 2.15 µM)	99.5 ± 0.1%	99.2 ± 0.2%	98.1 ± 0.6%	95.8 ± 1.2%	0.88 ± 0.03 mg/L (≈ 2.62 µM)
CS(=O)(=O)c1nnc(CNC(=O)C=Cc2ccc(Cl)cc2)o1 [compound 14, 3-(4-chlorophenyl)-N-((5-(methylsulfonyl)-1,3,4-oxadiazol-2-yl)methyl)acrylamide]	0.43 ± 0.06 mg/L (≈ 1.26 µM)	97.6 ± 0.8%	–	98.8 ± 0.7%	98.2 ± 1.1%	0.61 ± 0.03 mg/L (≈ 1.78 µM)
CCS(=O)(=O)c1nnc(CNC(=O)C=Cc2ccc(Cl)cc2)o1 [compound 15, 3-(4-chlorophenyl)-N-((5-(ethylsulfonyl)-1,3,4-oxadiazol-2-yl)methyl)acrylamide]	0.43 ± 0.04 mg/L (≈ 1.21 µM)	98.1 ± 0.6%	98.3 ± 0.2%	97.9 ± 0.4%	98.9 ± 0.3%	1.45 ± 0.05 mg/L (≈ 4.08 µM)
CS(=O)(=O)c1nnc(CNC(=O)C=Cc2ccc(Cl)cc2Cl)o1 [compound 16, 3-(2,4-dichlorophenyl)-N-((5-(methylsulfonyl)-1,3,4-oxadiazol-2-yl)methyl)a crylamide]	0.42 ± 0.05 mg/L (≈ 1.12 µM)	98.9 ± 0.3%	99 ± 0.4%	99.2 ± 0.7%	97.7 ± 0.7%	1.15 ± 0.05 mg/L (≈ 3.06 µM)
CC(=CC(=O)NCc1nnc(S(C)(=O)=O)o1)c1ccccc1 [compound 17, N-((5-(methylsulfonyl)-1,3,4-oxadiazol-2-yl)methyl)-3-phenylbut-2-enamide]	0.54 ± 0.04 mg/L (≈ 1.68 µM)	99.4 ± 0.5%	99.7 ± 0.4%	67.7 ± 0.9%	94.7 ± 0.9%	5.21 ± 0.11 mg/L (≈ 16.2 µM)
Cc1ccc(C(=O)NCc2nnc(S(C)(=O)=O)o2)c(C)c1 [compound 18, 2,4-dimethyl-N-((5-(methylsulfonyl)-1,3,4-oxadiazol-2-yl)methyl)benzamide]	0.69 ± 0.04 mg/L (≈ 2.23 µM)	98.8 ± 0.2%	98.2 ± 1.4%	98.9 ± 1%	96.9 ± 0.2%	1.74 ± 0.11 mg/L (≈ 5.62 µM)
CCS(=O)(=O)c1nnc(CNC(=O)c2ccc(C)cc2C)o1 [compound 19, N-((5-(ethylsulfonyl)-1,3,4-oxadiazol-2-yl)methyl)-2,4-dimethylbenzamide]	1.08 ± 0.11 mg/L (≈ 3.34 µM)	97.2 ± 1.4%	98.1 ± 0.8%	98.2 ± 1%	95.8 ± 0.8%	1.69 ± 0.18 mg/L (≈ 5.23 µM)
Cc1ccc(C(=O)NCc2nnc(S(C)(=O)=O)o2)cc1 [compound 20, 4-methyl-N-((5-(methylsulfonyl)-1,3,4-oxadiazol-2-yl)methyl)benzamide]	0.63 ± 0.06 mg/L (≈ 2.13 µM)	99.4 ± 0.3%	99.6 ± 0.3%	67.8 ± 6.8%	99 ± 0.9%	1.66 ± 0.21 mg/L (≈ 5.62 µM)
CS(=O)(=O)c1nnc(CNC(=O)c2c(F)cccc2F)o1 [compound 21, 2,6-difluoro-N-((5-(methylsulfonyl)-1,3,4-oxadiazol-2-yl)methyl)benzamide]	0.65 ± 0.05 mg/L (≈ 2.05 µM)	97.4 ± 0.3%	96.3 ± 0.4%	97.1 ± 2.3%	98.4 ± 1.1%	1.51 ± 0.02 mg/L (≈ 4.76 µM)
CS(=O)(=O)c1nnc(CNC(=O)c2ccc(C(F)(F)F)cc2)o1 [compound 22, N-((5-(methylsulfonyl)-1,3,4-oxadiazol-2-yl)methyl)-4-(trifluoromethyl)benz amide]	0.72 ± 0.05 mg/L (≈ 2.06 µM)	99.7 ± 0.2%	99.9 ± 0.1%	90.3 ± 5.5%	99.3 ± 0.3%	1.7 ± 0.09 mg/L (≈ 4.87 µM)
CS(=O)(=O)c1nnc(CNC(=O)c2ccc(F)cc2F)o1 [compound 23, 2,4-difluoro-N-((5-(methylsulfonyl)-1,3,4-oxadiazol-2-yl)methyl)benzamide]	0.8 ± 0.09 mg/L (≈ 2.52 µM)	95.7 ± 1.9%	95.4 ± 0.4%	69.6 ± 1.8%	99.5 ± 0.4%	7.41 ± 1.3 mg/L (≈ 23.4 µM)
CS(=O)(=O)c1nnc(CNC(=O)c2ccc(Cl)cc2)o1 [compound 24, 4-chloro-N-((5-(methylsulfonyl)-1,3,4-oxadiazol-2-yl)methyl)benzamide]	0.4 ± 0.03 mg/L (≈ 1.27 µM)	99.9 ± 0.1%	99.6 ± 0.2%	96.9 ± 0.4%	97.8 ± 2.7%	0.9 ± 0.04 mg/L (≈ 2.85 µM)
CCS(=O)(=O)c1nnc(CNC(=O)c2ccc(Cl)cc2)o1 [compound 25, 4-chloro-N-((5-(ethylsulfonyl)-1,3,4-oxadiazol-2-yl)methyl)benzamide]	0.82 ± 0.05 mg/L (≈ 2.49 µM)	–	99.2 ± 0.3%	99.6 ± 0.3%	98.8 ± 1%	0.94 ± 0.09 mg/L (≈ 2.85 µM)
